{"source": "patent US9724544B2", "about": "“Vitamin D promoting sunscreen” (priority 2009, dated 2017)", "data": [{"system": "primary human keratinocytes", "assay": "not given", "settings": "De Haes et al. 2005; cited from earlier work", "values": [{"compound": "C=C1/C(=C\\C=C2/CCC[C@]3(C)[C@@H]([C@H](C)CCCC(C)(C)O)CC[C@@H]23)C[C@@H](O)C[C@@H]1O", "note": "[1,25(OH)2D3, 1,25-dihydroxyvitamin D3]", "protection against UVB-induced DNA damage": "protects"}]}, {"system": "not given", "assay": "not given", "settings": "approximately 295 to 315 nm; cited from earlier work", "values": [{"compound": "COc1ccc(C(=O)c2ccc(C)cc2)c(O)c1", "note": "[Mexenon, 2-hydroxy-4-methoxy-4′-methyl-benzophenone]", "absorption in the vitamin D producing range": "minimal to moderate"}, {"compound": "CCCCC(CC)COC(=O)C(C#N)=C(c1ccccc1)c1ccccc1", "note": "(stereo not drawn) [Octocrylene, 2-ethylhexyl alpha-cyano-beta-phenylcinnamate]", "absorption in the vitamin D producing range": "minimal to moderate"}, {"compound": "COc1ccc(C(=O)c2ccc(OC)cc2O)c(O)c1", "note": "[2,2′-Dihydroxy-4,4′-dimethoxybenzophenone]", "absorption in the vitamin D producing range": "high percentage"}, {"compound": "O=C(c1ccccc1)c1ccc(O)cc1O", "note": "[2,4-Dihydroxybenzophenone]", "absorption in the vitamin D producing range": "high percentage"}, {"compound": "COc1ccc(C=CC(=O)OCCC(C)C)cc1", "note": "[Isoamyl p-methoxycinnamate]", "absorption in the vitamin D producing range": "high percentage"}, {"compound": "CCCCC(CC)COC(=O)c1ccc(Nc2nc(Nc3ccc(C(=O)OCC(CC)CCCC)cc3)nc(Nc3ccc(C(=O)OCC(CC)CCCC)cc3)n2)cc1", "note": "(centres unmarked) [Ethylhexyl Triazone]", "absorption in the vitamin D producing range": "high percentage"}, {"compound": "CC(=O)C=CC=C1C2CCC(C2)C1(C)C", "note": "(centres unmarked) [Digalloyl trioleate, 5-(3,3-Dimethyl 2 norbornyliden)-3penten-2-one]", "absorption in the vitamin D producing range": "high percentage"}, {"compound": "CCOCCOC(=O)C=Cc1ccc(OC)cc1", "note": "[Cinoxate, 2-ethoxyethyl p-methoxycinnamate]", "absorption in the vitamin D producing range": "high percentage"}, {"compound": "CCCCC(CC)COc1ccc(-c2nc(-c3ccc(OC)cc3)nc(-c3ccc(OCC(CC)CCCC)cc3O)n2)c(O)c1", "note": "(centres unmarked) [Bemotrizinol, bis-ethylhexyloxyphenol methoxyphenyl triazine]", "absorption in the vitamin D producing range": "high percentage"}, {"compound": "Nc1ccc(C(=O)OCC(O)CO)cc1", "note": "(centres unmarked) [Glyceryl Aminobenzoate, glyceryl 1-(4-aminobenzoate)]", "absorption in the vitamin D producing range": "high percentage"}, {"compound": "CCCCCCOC(=O)c1ccccc1C(=O)c1ccc(N(CC)CC)cc1O", "note": "[Uvinul A Plus, diethylamino hydroxybenzoyl hexyl benzoate]", "absorption in the vitamin D producing range": "relative lack of absorption"}, {"compound": "CCCCC(CC)COC(=O)c1ccccc1O", "note": "(centres unmarked) [Octisalate, 2-ethylhexyl salicylate]", "absorption in the vitamin D producing range": "minimal to moderate"}, {"compound": "O=S(=O)([O-])c1cc(S(=O)(=O)O)cc2[nH]c(-c3ccc(-c4nc5c(S(=O)(=O)[O-])cc(S(=O)(=O)O)cc5[nH]4)cc3)nc12.[Na+].[Na+]", "note": "[Bisdisulizole disodium, disodium phenyl dibenzimidazole tetrasulfonate]", "absorption in the vitamin D producing range": "relative lack of absorption"}, {"compound": "COc1ccc(C(=O)c2ccccc2)c(O)c1", "note": "[Oxybenzone, 2-hydroxy-4-methoxybenzophenone]", "absorption in the vitamin D producing range": "minimal to moderate"}, {"compound": "Nc1ccc(C(=O)O)cc1", "note": "[Aminobenzoic acid, 4-aminobenzoic acid]", "absorption in the vitamin D producing range": "high percentage"}, {"compound": "CCCCC(CC)COC(=O)c1ccc(Nc2nc(Nc3ccc(C(=O)NC(C)(C)C)cc3)nc(Nc3ccc(C(=O)OCC(CC)CCCC)cc3)n2)cc1", "note": "(centres unmarked) [Iscotrizinol, diethylhexyl butamido triazone]", "absorption in the vitamin D producing range": "high percentage"}, {"compound": "4-Bis(polyethoxy)para-aminobenzoic acid polyethoxyethyl ester [PEG-25 PABA]", "absorption in the vitamin D producing range": "minimal absorption"}, {"compound": "COc1cc(O)c(C(=O)c2ccccc2)cc1S(=O)(=O)O", "note": "[Sulisobenzone, 2-hydroxy-4-methoxybenzophenone-5-sulfonic acid]", "absorption in the vitamin D producing range": "minimal to somewhat moderate"}, {"compound": "COc1ccc(C(=O)CC(=O)c2ccc(C(C)(C)C)cc2)cc1", "note": "[Avobenzone, 4-tert-butyl-4′-methoxy-dibenzoylmethane]", "absorption in the vitamin D producing range": "relative lack of absorption"}, {"compound": "Cc1ccc(C=C2C(=O)C3(C)CCC2C3(C)C)cc1", "note": "(centres unmarked) [4-Methylbenzylidene camphor, 3-(4-methylbenzyliden)camphor]", "absorption in the vitamin D producing range": "high percentage"}, {"compound": "O=C(c1ccc(O)cc1O)c1ccc(O)cc1O", "note": "[2,2^1,4,4′-Tetrahydroxybenzophenone]", "absorption in the vitamin D producing range": "high percentage"}, {"compound": "CCCCCOC(=O)c1ccc(N(C)C)cc1", "note": "[Padimate-A, amyl p-dimethylaminobenzoate]", "absorption in the vitamin D producing range": "high percentage"}, {"compound": "CCCCCCCCOc1ccc(C(=O)c2ccccc2)c(O)c1", "note": "[2-Hydroxy-4-(Octyloxy)Benzophenone]", "absorption in the vitamin D producing range": "high percentage"}, {"compound": "CCCCC(CC)COC(=O)c1ccc(N(C)C)cc1", "note": "(centres unmarked) [Padimate-0, 2-ethylhexyl 4-dimethylaminobenzoate]", "absorption in the vitamin D producing range": "high percentage"}, {"compound": "CC1CC(OC(=O)c2ccccc2O)CC(C)(C)C1", "note": "(centres unmarked) [Homosalate, 3,3,5-trimethylcyclohexyl salicylate]", "absorption in the vitamin D producing range": "minimal to moderate"}]}, {"system": "not given", "assay": "not given", "settings": "dissolved in alcohol; cited from earlier work", "units": {"maximum absorbance": "nm"}, "values": [{"compound": "Nc1ccc(C(=O)O)cc1", "note": "[Aminobenzoic acid, 4-aminobenzoic acid]", "maximum absorbance": 289}]}, {"system": "not given", "assay": "not given", "settings": "dissolved in water; cited from earlier work", "units": {"maximum absorbance": "nm"}, "values": [{"compound": "Nc1ccc(C(=O)O)cc1", "note": "[Aminobenzoic acid, 4-aminobenzoic acid]", "maximum absorbance": 278}]}, {"system": "not listed separately", "assay": "UV absorption spectra (absorbance range, maxima, critical wavelength) of UV filters and other ingredients", "assay_type": "physicochemical", "settings": "over time under the sun", "values": [{"compound": "COc1ccc(C(=O)CC(=O)c2ccc(C(C)(C)C)cc2)cc1", "note": "[Avobenzone, 4-tert-butyl-4′-methoxy-dibenzoylmethane]", "ability to absorb radiation in the 290 to 315 nm range over time": "increases over time"}]}]}
